Measurements published in patent publication US20220380314A1, “SUBSTITUTED, SATURATED AND UNSATURATED N-HETEROCYCLIC CARBOXAMIDES AND RELATED COMPOUNDS FOR THEIR USE IN THE TREATMENT OF MEDICAL DISORDERS” (Bial - R&D Investments, S.A., priority 2019, published 2022).

What follows are compounds tested against T1, acid ceramidase (hACR) (Homo sapiens, UniProt Q13510) (assay: Acid ceramidase inhibition, biochemical fluorescent assay with cell lysates overexpressing acid ceramidase, substrate Rbm14-12). Settings: cell lysates overexpressing acid ceramidase; 1 hr preincubation at RT; pH 4.5; substrate Rbm14-12 6.3 μM; read-out: hACR IC50.
T1 construct: expressed in transfected cells; cell lysate used
T1 sequence (Q13510 143-395 limits assumed): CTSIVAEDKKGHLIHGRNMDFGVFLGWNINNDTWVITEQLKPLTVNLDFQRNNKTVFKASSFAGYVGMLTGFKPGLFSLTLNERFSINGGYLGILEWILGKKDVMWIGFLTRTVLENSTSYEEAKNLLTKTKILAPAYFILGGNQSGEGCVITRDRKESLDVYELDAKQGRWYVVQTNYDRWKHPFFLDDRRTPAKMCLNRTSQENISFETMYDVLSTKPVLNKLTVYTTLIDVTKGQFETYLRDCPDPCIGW
T1 sequence (Q13510 22-142 limits assumed): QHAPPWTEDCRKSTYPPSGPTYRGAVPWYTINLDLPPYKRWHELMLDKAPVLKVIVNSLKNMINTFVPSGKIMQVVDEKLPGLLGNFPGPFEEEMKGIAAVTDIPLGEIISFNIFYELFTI
Procedure: The ability of exemplary compounds to inhibit acid ceramidase was measured.
Cell lysates overexpressing acid ceramidase were used as the enzyme source for compound potency determination in a biochemical fluorescent assay. Briefly, compounds were preincubated with 10 µg protein of cell lysates in a dose-response manner for 1 hr at RT in the assay buffer containing 25 mM NaAC and 100 mM NaCl, pH 4.5. The reaction was initiated by the addition of substrate Rbm14-12 at a final concentration of 6.3 μM. The reaction was run at RT for 1 hr before it was stopped by the addition of the stopping buffer containing 20% methanol (v/v), 1 mg/ml NaIO4, 0.1 M glycine, pH 10.6. The samples were incubated with the stopping buffer at RT for 1 hr to allow the fluorescent product to be formed. Finally the plate was read with SpectraMax i3 plate reader (Molecular Devices) at ex360 nm and em446 nm. Data were collected and used to determine the IC50 values of compounds by curve fitting to the four-parameter inhibition equation.
The symbol “A” indicates inhibition of less than 0.2 μM; the symbol “B” indicates inhibition in the range of 0.2 μM up to 1 μM; and the symbol “C” indicates inhibition of greater than 1 μM.

IC50 [nM]	Compound
< 200	CC1(C)CN(C2CC2)CCN1C(=O)NCCCCc1ccccc1 [Example 111, 4-Cyclopropyl-2,2-dimethyl-N-(4-phenylbutyl)piperazine-1-carboxamide]
< 200	CCCCCNC(=O)N1CCN(C2CC2)CC1(C)C [Example 112, 4-Cyclopropyl-2,2-dimethyl-N-pentylpiperazine-1-carboxamide]
200 to 1000	C[C@@H]1CN(C(=O)NCCCCc2ccccc2)[C@@H](C)CN1C1CC1 [Example 113, (2S,5R)-4-Cyclopropyl-2,5-dimethyl-N-(4-phenylbutyl)piperazine-1-carboxamide]
> 1000	CCCCCNC(=O)N1C[C@@H](C)N(C2CC2)C[C@@H]1C [Example 114, (2S,5R)-4-cyclopropyl-2,5-dimethyl-N-pentylpiperazine-1-carboxamide]
200 to 1000	CC(C)[C@@H]1CN(C2CC2)CCN1C(=O)NCCCCc1ccccc1 [Example 116, (2R)-4-Cyclopropyl-2-isopropyl-N-(4-phenylbutyl)piperazine-1-carboxamide]
> 1000	CC(C)[C@H]1CN(C2CC2)CCN1C(=O)NCCCCc1ccccc1 [Example 117, (2S)-4-Cyclopropyl-2-isopropyl-N-(4-phenylbutyl)piperazine-1-carboxamide]
> 1000	CCCCCNC(=O)N1CCN(C2CC2)C[C@@H]1C(C)C [Example 118, (2S)-4-Cyclopropyl-2-isopropyl-N-pentylpiperazine-1-carboxamide]
> 1000	CC1CN(C(=O)NCCCCc2ccccc2)C(C)(C)CC1=O (stereo not shown) [Example 119, 2,2,5-Trimethyl-4-oxo-N-(4-phenylbutyl)piperidine-1-carboxamide]
> 1000	CC1(C)CN(C(=O)NCCCCc2ccccc2)C(C)(C)CC1=O [Example 120, 2,2,5,5-Tetramethyl-4-oxo-N-(4-phenylbutyl)piperidine-1-carboxamide]
< 200	CC1(C)CC(=O)C(Cc2ccccc2)CN1C(=O)NCCCCc1ccccc1 (stereo not shown) [Example 121, 5-Benzyl-2,2-dimethyl-4-oxo-N-(4-phenylbutyl)piperidine-1-carboxamide]
< 200	CC1(C)CC(=O)/C(=C/c2ccccc2)CN1C(=O)NCCCCc1ccccc1 [Example 122, (5E)-5-Benzylidene-2,2-dimethyl-4-oxo-N-(4-phenylbutyl)piperidine-1-carboxamide]
> 1000	CC1(C)CC(=O)C(c2ccccc2)CN1C(=O)NCCCCc1ccccc1 (stereo not shown) [Example 123, 2,2-Dimethyl-4-oxo5-phenyl-N-(4-phenylbutyl)piperidine-1-carboxamide]
< 200	CCCCCNC(=O)N1CC(C)C(N2CCCCC2)CC1(C)C (stereo not shown) [Example 124, 2,2,5-Trimethyl-N-pentyl-4-(1-piperidyl)piperidine-1-carboxamide]
< 200	CC1(C)CC(N2CCCCC2)C(Cc2ccccc2)CN1C(=O)NCCCCc1ccccc1 (stereo not shown) [Example 125, 5-Benzyl-2,2-dimethyl-N-(4-phenylbutyl)-4-(1-piperidyl)piperidine-1-carboxamide]
< 200	CC1(C)CC(N2CCCCC2)C(Cc2ccccc2)CN1C(=O)NCCc1ccccc1 (stereo not shown) [Example 126, 5-Benzyl-2,2-dimethyl-N-(2-phenylethyl)-4-(1-piperidyl)piperidine-1-carboxamide]
< 200	CCCCCNC(=O)N1CC(Cc2ccccc2)C(N2CCCCC2)CC1(C)C (stereo not shown) [Example 127, 5-Benzyl-2,2-dimethyl-N-pentyl-4-(1-piperidyl)piperidine-1-carboxamide]
< 200	CC1(C)CC(N2CCCCC2)/C(=C/c2ccccc2)CN1C(=O)NCCCCc1ccccc1 (stereo not shown) [Example 128, (5E)-5-Benzylidene-2,2-dimethyl-N-(4-phenylbutyl)-4-(1-piperidyl)piperidine-1-carboxamide]
200 to 1000	CC1(C)CC(N2CCCCC2)/C(=C/c2ccccc2)CN1C(=O)NCCc1ccccc1 (stereo not shown) [Example 129, (5E)-5-Benzylidene-2,2-dimethyl-N-(2-phenylethyl)-4-(1-piperidyl)piperidine-1-carboxamide]
< 200	CCCCCNC(=O)N1C/C(=C\c2ccccc2)C(N2CCCCC2)CC1(C)C (stereo not shown) [Example 130, (5E)-5-Benzylidene-2,2-dimethyl-N-pentyl-4-(1-piperidyl)piperidine-1-carboxamide]
< 200	CCCCCNC(=O)N1CC(c2ccccc2)C(N2CCCCC2)CC1(C)C (stereo not shown) [Example 131, 2,2-Dimethyl-N-pentyl-5-phenyl-4-(1-piperidyl)piperidine-1-carboxamide]

IC50 [nM]	Compound
< 200	CC1(C)COCC(c2ccccc2)N1C(=O)NCCCCc1ccccc1 (stereo not shown) [Example 133, 3,3-Dimethyl-5-phenyl-N-(4-phenylbutyl)morpholine-4-carboxamide]
< 200	CCCCCCCNC(=O)N1C(c2ccccc2)COCC1(C)C (stereo not shown) [Example 134, N-Heptyl-3,3-dimethyl-5-phenylmorpholine-4-carboxamide]
200 to 1000	CC1(C)COCC(c2ccccc2)N1C(=O)NC1CCCCC1 (stereo not shown) [Example 135, N-Cyclohexyl-3,3-dimethyl-5-phenylmorpholine-4-carboxamide]
< 200	CC1(C)COCC(c2ccc(F)cc2)N1C(=O)NCCCCc1ccccc1 (stereo not shown) [Example 136, 5-(4-Fluorophenyl)-3,3-dimethyl-N-(4-phenylbutyl)morpholine-4-carboxamide]
< 200	CC(C)CNC(=O)N1C(c2ccc(F)cc2)COCC1(C)C (stereo not shown) [Example 140, 5-(4-Fluorophenyl)-N-isobutyl-3,3-dimethylmorpholine-4-carboxamide]
200 to 1000	CCCCCNC(=O)N1[C@@H](C)COC[C@H]1c1ccc(F)cc1 [Example 141, (3R,5S)-3-(4-Fluorophenyl)-5-methyl-N-pentylmorpholine-4-carboxamide]
200 to 1000	CCCCCNC(=O)N1[C@H](C)COC[C@@H]1c1ccc(F)cc1 [Example 142, (3S,5R)-3-(4-Fluorophenyl)-5-methyl-N-pentylmorpholine-4-carboxamide]
< 200	COc1ccc(C2COCC(C)(C)N2C(=O)NCC(C)C)cc1 (stereo not shown) [Example 143, N-iso-Butyl-5-(4-methoxyphenyl)-3,3-dimethylmorpholine-4-carboxamide]
< 200	COc1ccc(C2COCC(C)(C)N2C(=O)NCCC2CC2)cc1 (stereo not shown) [Example 146, N-(2-Cyclopropylethyl)-5-(4-methoxyphenyl)-3,3-dimethylmorpholine-4-carboxamide]
< 200	COc1ccc(C2COCC(C)(C)N2C(=O)NCCC(C)C)cc1 (stereo not shown) [Example 147, N-iso-Pentyl-5-(4-methoxyphenyl)-3,3-dimethylmorpholine-4-carboxamide]
< 200	COc1ccc(C2COCC(C)(C)N2C(=O)NCCc2ccc(F)cc2)cc1 (stereo not shown) [Example 148, N-[2-(4-Fluorophenyl)ethyl]-5-(4-methoxyphenyl)-3,3-dimethylmorpholine-4-carboxamide]
< 200	COc1ccc(C2COCC(C)(C)N2C(=O)NCCCCC2CC2)cc1 (stereo not shown) [Example 149, N-(4-Cyclopropylbutyl)-5-(4-methoxyphenyl)-3,3-dimethylmorpholine-4-carboxamide]
< 200	COc1ccc(C2COCC(C)(C)N2C(=O)NCC2CCCCC2)cc1 (stereo not shown) [Example 150, N-(Cyclohexylmethyl)-5-(4-methoxyphenyl)-3,3-dimethylmorpholine-4-carboxamide]
< 200	COc1ccc(C2COCC(C)(C)N2C(=O)NCc2ccc(F)cc2)cc1 (stereo not shown) [Example 151, N-[(4-Fluorophenyl)methyl]-5-(4-methoxyphenyl)-3,3-dimethylmorpholine-4-carboxamide]
> 1000	COc1ccc(C2COCC(C)(C)N2C(=O)NCC(F)(F)F)cc1 (stereo not shown) [Example 152, 5-(4-Methoxyphenyl)-3,3-dimethyl-N-(2,2,2-trifluoroethyl)morpholine-4-carboxamide]
< 200	CCCCCNC(=O)N1C(c2ccccc2C)COCC1(C)C (stereo not shown) [Example 158, 3,3-Dimethyl-5-(o-tolyl)-N-pentylmorpholine-4-carboxamide]
< 200	CCCCCNC(=O)N1C(c2ccc(OC)nc2)COCC1(C)C (stereo not shown) [Example 159, 5-(6-Methoxy-3-pyridyl)-3,3-dimethyl-N-pentylmorpholine-4-carboxamide]
< 200	CCCCCNC(=O)N1C(c2ccc(OC)cc2F)COCC1(C)C (stereo not shown) [Example 160, 5-(2-Fluoro-4-methoxyphenyl)-3,3-dimethyl-N-pentylmorpholine-4-carboxamide]
< 200	CCCCCNC(=O)N1C(c2ccc(OC)c(F)c2)COCC1(C)C (stereo not shown) [Example 161, 5-(3-Fluoro-4-methoxyphenyl)-3,3-dimethyl-N-pentylmorpholine-4-carboxamide]
< 200	CCCCCNC(=O)N1C(c2ccc(F)c(F)c2)COCC1(C)C (stereo not shown) [Example 162, 5-(3,4-Difluorophenyl)-3,3-dimethyl-N-pentylmorpholine-4-carboxamide]
